How the values were obtained:
Format in all cases: functional, cell-based
HEp-2 = assay: Cytotoxicity against human Hep2 cells by MTT assay
[1] = Cytotoxicity against human A375-S2 cells by MTT assay
HT-1080 = assay: Cytotoxicity against human HT1080 cells by MTT assay
A549 = assay: Cytotoxicity against human A549 cells by MTT assay
HepG2 = assay: Cytotoxicity against human HepG2 cells by MTT assay
PC-3 = assay: Cytotoxicity against human PC3 cells by MTT assay
[2] = Cytotoxicity against human MDA231 cells by MTT assay; details: MDA-MB-231
MCF7 = assay: Cytotoxicity against human MCF7 cells by MTT assay
BGC-823 = assay: Cytotoxicity against human BGC823 cells by MTT assay
HeLa = assay: Cytotoxicity against human HeLa cells by MTT assay

Measured: IC50

CC1(C)C[C@H]2C3=CC[C@@H]4[C@@]5(C)CC[C@H](O[C@@H]6O[C@H](CO[C@@H]7O[C@H](CO)[C@@H](O)[C@H](O)[C@H]7O)[C@@H](O)[C@H](O)[C@H]6O)C(C)(C)[C@@H]5CC[C@@]4(C)[C@]3(C)CC(=O)[C@@]2(CO[C@@H]2O[C@H](CO[C@@H]3O[C@H](CO)[C@@H](O)[C@H](O)[C@H]3O)[C@@H](O)[C@H](O)[C@H]2O[C@@H]2O[C@H](CO)[C@@H](O)[C@H](O)[C@H]2O)[C@@H](O)[C@@H]1O [SORBIFOLIASIDE B]
> 100 µM: HEp-2 | [1] | HT-1080 | A549 | HepG2 | PC-3 | [2] | MCF7 | BGC-823 | HeLa

C/C=C(/C)C(=O)O[C@@H]1[C@@H](O)[C@H](O[C@H]2CC[C@]3(C)[C@H]4CC=C5[C@@H]6CC(C)(C)[C@@H](O)[C@H](O)[C@]6(CO[C@@H]6O[C@H](CO[C@@H]7O[C@H](CO)[C@@H](O)[C@H](O)[C@H]7O)[C@@H](O)[C@H](O)[C@H]6O[C@@H]6O[C@H](CO)[C@@H](O)[C@H](O)[C@H]6O)CC[C@@]5(C)[C@]4(C)CC[C@H]3C2(C)C)O[C@H](CO[C@@H]2O[C@H](CO)[C@@H](O)[C@H](O)[C@H]2O)[C@H]1OC(C)=O [SORBIFOLIASIDE F]
> 100 µM: HEp-2 | [1] | HT-1080 | A549 | HepG2 | PC-3 | [2] | MCF7 | BGC-823 | HeLa

C/C=C(/C)C(=O)O[C@@H]1[C@@H](O)[C@H](O[C@H]2CC[C@]3(C)[C@H]4CC=C5[C@@H]6CC(C)(C)[C@@H](O)[C@H](O)[C@]6(CO[C@@H]6O[C@H](CO[C@@H]7O[C@H](CO)[C@@H](O)[C@H](O)[C@H]7O)[C@@H](O)[C@H](O)[C@H]6O)C(=O)C[C@@]5(C)[C@]4(C)CC[C@H]3C2(C)C)O[C@H](CO[C@@H]2O[C@H](CO)[C@@H](O)[C@H](O)[C@H]2O)[C@H]1O [SORBIFOLIASIDE E]
> 100 µM: HEp-2 | [1] | HT-1080 | A549 | HepG2 | PC-3 | [2] | MCF7 | BGC-823 | HeLa

C[C@@H]1O[C@@H](O[C@H]2[C@H](OC[C@@]34CC[C@]5(C)C(=CC[C@@H]6[C@@]7(C)CC[C@H](O[C@@H]8O[C@H](CO[C@@H]9O[C@H](CO)[C@@H](O)[C@H](O)[C@H]9O)[C@@H](O)[C@H](O)[C@H]8O)C(C)(C)[C@@H]7CC[C@]65C)[C@@H]3CC(C)(C)[C@@H](O)[C@@H]4O)O[C@H](CO[C@@H]3O[C@H](CO)[C@@H](O)[C@H](O)[C@H]3O)[C@@H](O)[C@@H]2O)[C@H](O)[C@H](O)[C@H]1O [XANIFOLIA O54]
> 100 µM: HEp-2 | [1] | HT-1080 | A549 | HepG2 | PC-3 | [2] | MCF7 | BGC-823 | HeLa

From ChEMBL document CHEMBL2057081, “Triterpenoid saponins from Xanthoceras sorbifolia Bunge and their inhibitory activity on human cancer cell lines” (Bioorg Med Chem Lett, 2012)
